Measurements taken from ChEMBL document CHEMBL1697731, “Cheminformatics analysis of assertions mined from literature that describe drug-induced liver injury in different species” (Chem Res Toxicol, 2010).

What was measured:
Hepatotoxicity [1] = test: Literature-mined compound from Fourches et al multi-species drug-induced liver injury (DILI) dataset, effect in non-rodents
Hepatotoxicity [2] = test: Literature-mined compound from Fourches et al multi-species drug-induced liver injury (DILI) dataset, effect in humans; conditions: human
Hepatotoxicity [3] = test: Literature-mined compound from Fourches et al multi-species drug-induced liver injury (DILI) dataset, effect in rodents; conditions: rodentia

NC(=O)NO [HYDROXYUREA]
Hepatotoxicity (Hepatotoxicity [1]): no drug-induced liver injury reported | Hepatotoxicity (Hepatotoxicity [2]): drug-induced liver injury reported | Hepatotoxicity (Hepatotoxicity [3]): drug-induced liver injury reported

Cc1ccc(C(=O)Nc2ccc(S(=O)(=O)O)c3cc(S(=O)(=O)O)cc(S(=O)(=O)O)c23)cc1NC(=O)c1cccc(NC(=O)Nc2cccc(C(=O)Nc3cc(C(=O)Nc4ccc(S(=O)(=O)O)c5cc(S(=O)(=O)O)cc(S(=O)(=O)O)c45)ccc3C)c2)c1 [SURAMIN]
Hepatotoxicity (Hepatotoxicity [1]): drug-induced liver injury reported | Hepatotoxicity (Hepatotoxicity [2]): drug-induced liver injury reported | Hepatotoxicity (Hepatotoxicity [3]): drug-induced liver injury reported

CC(C)NNC(=O)COc1ccc(Cl)cc1 [IPROCLOZIDE]
Hepatotoxicity (Hepatotoxicity [1]): no drug-induced liver injury reported | Hepatotoxicity (Hepatotoxicity [2]): drug-induced liver injury reported | Hepatotoxicity (Hepatotoxicity [3]): no drug-induced liver injury reported

C#C[C@]1(O)CC[C@H]2[C@@H]3CCC4=Cc5oncc5C[C@]4(C)[C@H]3CC[C@@]21C [DANAZOL]
Hepatotoxicity (Hepatotoxicity [1]): no drug-induced liver injury reported | Hepatotoxicity (Hepatotoxicity [2]): drug-induced liver injury reported | Hepatotoxicity (Hepatotoxicity [3]): no drug-induced liver injury reported

CSc1ccc(C(=O)c2[nH]c(=O)[nH]c2C)cc1 [ENOXIMONE]
Hepatotoxicity (Hepatotoxicity [1]): no drug-induced liver injury reported | Hepatotoxicity (Hepatotoxicity [2]): no drug-induced liver injury reported | Hepatotoxicity (Hepatotoxicity [3]): drug-induced liver injury reported

CN(C)c1ccc(C(=C2C=CC(=[N+](C)C)C=C2)c2ccc(N(C)C)cc2)cc1.[Cl-] [GENTIAN VIOLET]
Hepatotoxicity (Hepatotoxicity [1]): no drug-induced liver injury reported | Hepatotoxicity (Hepatotoxicity [2]): no drug-induced liver injury reported | Hepatotoxicity (Hepatotoxicity [3]): drug-induced liver injury reported

CC(C)(C)NC[C@H](O)COc1nsnc1N1CCOCC1 [TIMOLOL]
Hepatotoxicity (Hepatotoxicity [1]): no drug-induced liver injury reported | Hepatotoxicity (Hepatotoxicity [2]): drug-induced liver injury reported | Hepatotoxicity (Hepatotoxicity [3]): no drug-induced liver injury reported

Cc1ccccc1-n1c(C)nc2ccccc2c1=O [METHAQUALONE]
Hepatotoxicity (Hepatotoxicity [1]): no drug-induced liver injury reported | Hepatotoxicity (Hepatotoxicity [2]): no drug-induced liver injury reported | Hepatotoxicity (Hepatotoxicity [3]): drug-induced liver injury reported

C#C[C@]1(O)C=C[C@H]2[C@@H]3CCC4=CC(=O)CC[C@@H]4[C@H]3CC[C@@]21CC [GESTODENE]
Hepatotoxicity (Hepatotoxicity [1]): no drug-induced liver injury reported | Hepatotoxicity (Hepatotoxicity [2]): drug-induced liver injury reported | Hepatotoxicity (Hepatotoxicity [3]): no drug-induced liver injury reported

NC(=O)c1cnccn1 [PYRAZINAMIDE]
Hepatotoxicity (Hepatotoxicity [1]): no drug-induced liver injury reported | Hepatotoxicity (Hepatotoxicity [2]): drug-induced liver injury reported | Hepatotoxicity (Hepatotoxicity [3]): drug-induced liver injury reported

COc1ccccc1OCCNCC(O)COc1cccc2[nH]c3ccccc3c12 (stereo unspecified) [CARVEDILOL]
Hepatotoxicity (Hepatotoxicity [1]): no drug-induced liver injury reported | Hepatotoxicity (Hepatotoxicity [2]): drug-induced liver injury reported | Hepatotoxicity (Hepatotoxicity [3]): drug-induced liver injury reported

CC(C(=O)O)c1ccc(-c2ccccc2)c(F)c1 (stereo unspecified) [FLURBIPROFEN]
Hepatotoxicity (Hepatotoxicity [1]): drug-induced liver injury reported | Hepatotoxicity (Hepatotoxicity [2]): no drug-induced liver injury reported | Hepatotoxicity (Hepatotoxicity [3]): drug-induced liver injury reported

CN(C)[C@@H]1C(O)=C(C(N)=O)C(=O)[C@@]2(O)C(O)=C3C(=O)c4c(O)ccc(Cl)c4[C@@](C)(O)[C@H]3C[C@@H]12 [CHLORTETRACYCLINE]
Hepatotoxicity (Hepatotoxicity [1]): drug-induced liver injury reported | Hepatotoxicity (Hepatotoxicity [2]): no drug-induced liver injury reported | Hepatotoxicity (Hepatotoxicity [3]): drug-induced liver injury reported

CN1C(C(=O)Nc2ccccn2)=C(O)c2sc(Cl)cc2S1(=O)=O [LORNOXICAM]
Hepatotoxicity (Hepatotoxicity [1]): no drug-induced liver injury reported | Hepatotoxicity (Hepatotoxicity [2]): drug-induced liver injury reported | Hepatotoxicity (Hepatotoxicity [3]): no drug-induced liver injury reported

CC(=O)Nc1ccc(O)cc1 [ACETAMINOPHEN]
Hepatotoxicity (Hepatotoxicity [1]): drug-induced liver injury reported | Hepatotoxicity (Hepatotoxicity [2]): drug-induced liver injury reported | Hepatotoxicity (Hepatotoxicity [3]): drug-induced liver injury reported

Cc1ccc(C(=O)c2cc(O)c(O)c([N+](=O)[O-])c2)cc1 [TOLCAPONE]
Hepatotoxicity (Hepatotoxicity [1]; Liver): no drug-induced liver injury reported | Hepatotoxicity (Hepatotoxicity [2]; Liver): drug-induced liver injury reported | Hepatotoxicity (Hepatotoxicity [3]; Liver): drug-induced liver injury reported

COc1ccc([C@@H]2Sc3ccccc3N(CCN(C)C)C(=O)[C@@H]2OC(C)=O)cc1 [DILTIAZEM]
Hepatotoxicity (Hepatotoxicity [1]): drug-induced liver injury reported | Hepatotoxicity (Hepatotoxicity [2]): drug-induced liver injury reported | Hepatotoxicity (Hepatotoxicity [3]): drug-induced liver injury reported

Oc1ccc(O)cc1 [HYDROQUINONE]
Hepatotoxicity (Hepatotoxicity [1]; Liver): no drug-induced liver injury reported | Hepatotoxicity (Hepatotoxicity [2]; Liver): drug-induced liver injury reported | Hepatotoxicity (Hepatotoxicity [3]; Liver): drug-induced liver injury reported

CC[C@H](c1ccc(O)cc1)[C@@H](CC)c1ccc(O)cc1 [HEXESTROL]
Hepatotoxicity (Hepatotoxicity [1]): no drug-induced liver injury reported | Hepatotoxicity (Hepatotoxicity [2]): no drug-induced liver injury reported | Hepatotoxicity (Hepatotoxicity [3]): drug-induced liver injury reported

CC1(C)CC(=O)N(CCCCN2CCN(c3ncccn3)CC2)C(=O)C1 [GEPIRONE]
Hepatotoxicity (Hepatotoxicity [1]): no drug-induced liver injury reported | Hepatotoxicity (Hepatotoxicity [2]): drug-induced liver injury reported | Hepatotoxicity (Hepatotoxicity [3]): no drug-induced liver injury reported

O=c1[nH]c(=O)n(C2CCCO2)cc1F (stereo unspecified) [TEGAFUR]
Hepatotoxicity (Hepatotoxicity [1]): no drug-induced liver injury reported | Hepatotoxicity (Hepatotoxicity [2]): drug-induced liver injury reported | Hepatotoxicity (Hepatotoxicity [3]): no drug-induced liver injury reported

CC[C@H]1[C@@H]2C[C@H]3[C@@H]4N(C)c5ccccc5[C@]45C[C@@H]([C@@H]2[C@H]5O)N3[C@@H]1O [AJMALINE]
Hepatotoxicity (Hepatotoxicity [1]): no drug-induced liver injury reported | Hepatotoxicity (Hepatotoxicity [2]): drug-induced liver injury reported | Hepatotoxicity (Hepatotoxicity [3]): no drug-induced liver injury reported

C[C@]12CC[C@@H]3c4ccc(O)cc4CC[C@H]3[C@@H]1CC[C@@H]2O [ESTRADIOL]
Hepatotoxicity (Hepatotoxicity [1]): drug-induced liver injury reported | Hepatotoxicity (Hepatotoxicity [2]): drug-induced liver injury reported | Hepatotoxicity (Hepatotoxicity [3]): drug-induced liver injury reported

O=C(O)c1ccc(-n2nc(-c3ccccc3O)nc2-c2ccccc2O)cc1 [DEFERASIROX]
Hepatotoxicity (Hepatotoxicity [1]): no drug-induced liver injury reported | Hepatotoxicity (Hepatotoxicity [2]): drug-induced liver injury reported | Hepatotoxicity (Hepatotoxicity [3]): no drug-induced liver injury reported

CCN(CC)CCOc1ccc(C(=C(Cl)c2ccccc2)c2ccccc2)cc1 (stereo in doubt; form 2) [CLOMIPHENE]
Hepatotoxicity (Hepatotoxicity [2]): no drug-induced liver injury reported | Hepatotoxicity (Hepatotoxicity [3]): drug-induced liver injury reported

Cc1ncc(CO)c(CO)c1O [PYRIDOXINE]
Hepatotoxicity (Hepatotoxicity [1]; Liver): no drug-induced liver injury reported | Hepatotoxicity (Hepatotoxicity [3]; Liver): drug-induced liver injury reported

NCC(=O)O [GLYCINE]
Hepatotoxicity (Hepatotoxicity [1]; Liver): drug-induced liver injury reported | Hepatotoxicity (Hepatotoxicity [3]; Liver): drug-induced liver injury reported

C[C@]12CCC(=O)C=C1CC[C@@H]1[C@@H]2CC[C@@]2(C)[C@H]1CC[C@]2(C)O (stereo in doubt; form 2) [METHYLTESTOSTERONE]
Hepatotoxicity (Hepatotoxicity [2]): drug-induced liver injury reported

CC(=O)[C@H]1CC[C@H]2[C@@H]3CCC4=CC(=O)CC[C@]4(C)[C@H]3CC[C@]12C (stereo in doubt; form 2) [PROGESTERONE]
Hepatotoxicity (Hepatotoxicity [1]): no drug-induced liver injury reported | Hepatotoxicity (Hepatotoxicity [3]): no drug-induced liver injury reported
